This is an account of results in BindingDB's records for patent US20260060961 (Jazz Pharmaceuticals Ireland, 2026).

The target of the assay is GTPase KRas [G12C] (Homo sapiens, UniProt P01116, G12C). In words: HTRF Nucleotide Exchange Assay. The protocol:
The capacity of compounds to bind KRAS G12C and KRAS wildtype was quantified using a HTRF nucleotide exchange assay. Recombinant human KRAS protein (5 nM; aa1-188 KRAS WT or KRAS containing the G12C amino acid substitution, an N-terminal 6×His-tag and leader sequence), and 2 nM Europium-labeled anti-6×His antibody were mixed in assay buffer (10 mM HEPES pH7.3, 75 mM NaCl, 5 mM MgCl2, 0.05% BSA, 0.0025% NP-40 and 100 mM KF) with various concentrations of compound in a 384-well plate and a volume of 5 μL. After a 180 minute incubation at room temperature, 5 μl of 200 nM EDA-GTP-DY647P1 diluted in assay buffer was added to the plate. Following 30-minute incubation at room temperature, time-resolved fluorescence was measured on a PerkinElmer Envision plate reader. DMSO (0.3%) and unlabeled GDP (1 μM) or equivalent tool compound were used to generate the Max and Min assay signals, respectively. Data was analysed using a four-parameter logistic model to calculate IC50 values, with at least two independent replicates were performed for each compound.
For orientation: In TR-FRET formats the signal depends on donor and acceptor labels being close together.

GTPase KRas [G12C], sequence (P01116 whole entry G12C, the tested form may be a part): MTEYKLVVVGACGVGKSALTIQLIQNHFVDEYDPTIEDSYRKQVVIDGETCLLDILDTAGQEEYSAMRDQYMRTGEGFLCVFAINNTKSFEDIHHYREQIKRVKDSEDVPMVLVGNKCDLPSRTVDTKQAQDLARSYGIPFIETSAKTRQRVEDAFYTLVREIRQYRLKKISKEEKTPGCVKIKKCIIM

Molecule `C=CC(=O)N1CC2(CC(c3nc(-c4ccc(OCC(=O)N5CCOCC5)cc4)c(-c4cc(O)cc5ccccc45)n3C)C2)C1` [US20260060961, Example 29] came in with a 50% inhibitory concentration (IC50) below 1 µM.

In turn, `C=CC(=O)N1CC2(CC(c3nc(-c4ccc5c(cnn5C)c4)c(-c4cccc5ccccc45)n3C)C2)C1` [US20260060961, Example 34] had a concentration for half-maximal inhibition (IC50) above 10 µM.

As a reminder, the IC50 is the concentration that inhibits the measured activity by half. A lower IC50 goes with inhibition by little substance.
